From patent US11578079B2, “SUMO inhibitor compounds and uses thereof” (CITY OF HOPE, priority 2018, dated 2023)
Each block holds one compound with its values, some of them ahead of it.

Experiments:
c-Myc = c-Myc activity (Table I, biological activities); parameters: key: + (less active); ++ (active); +++ (most active)
SUMO = target: T1, SUMO (Homo sapiens, UniProt Q9UBT2); experiment: SUMO activity (Table I, biological activities); assay type: biochemical; parameters: key: + (less active); ++ (active); +++ (most active)
T1 sequence (Q9UBT2 1-640): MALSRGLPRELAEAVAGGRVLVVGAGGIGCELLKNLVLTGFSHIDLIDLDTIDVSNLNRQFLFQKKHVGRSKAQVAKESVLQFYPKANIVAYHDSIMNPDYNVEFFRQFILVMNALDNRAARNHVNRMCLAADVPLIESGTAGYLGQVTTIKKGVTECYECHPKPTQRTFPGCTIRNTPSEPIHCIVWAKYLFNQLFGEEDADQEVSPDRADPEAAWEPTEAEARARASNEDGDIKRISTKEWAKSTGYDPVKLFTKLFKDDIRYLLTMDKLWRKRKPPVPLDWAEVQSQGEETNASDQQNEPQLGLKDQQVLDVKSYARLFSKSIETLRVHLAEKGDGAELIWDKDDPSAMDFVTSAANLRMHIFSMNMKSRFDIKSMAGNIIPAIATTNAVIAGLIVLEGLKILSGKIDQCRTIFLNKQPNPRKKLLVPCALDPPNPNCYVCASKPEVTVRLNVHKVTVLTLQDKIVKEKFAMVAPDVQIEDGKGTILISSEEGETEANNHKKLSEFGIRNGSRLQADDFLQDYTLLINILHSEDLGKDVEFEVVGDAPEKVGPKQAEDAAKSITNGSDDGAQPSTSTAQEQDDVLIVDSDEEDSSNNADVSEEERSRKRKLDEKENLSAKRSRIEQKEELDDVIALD
T1 sequence (Q9UBE0 1-346 partner): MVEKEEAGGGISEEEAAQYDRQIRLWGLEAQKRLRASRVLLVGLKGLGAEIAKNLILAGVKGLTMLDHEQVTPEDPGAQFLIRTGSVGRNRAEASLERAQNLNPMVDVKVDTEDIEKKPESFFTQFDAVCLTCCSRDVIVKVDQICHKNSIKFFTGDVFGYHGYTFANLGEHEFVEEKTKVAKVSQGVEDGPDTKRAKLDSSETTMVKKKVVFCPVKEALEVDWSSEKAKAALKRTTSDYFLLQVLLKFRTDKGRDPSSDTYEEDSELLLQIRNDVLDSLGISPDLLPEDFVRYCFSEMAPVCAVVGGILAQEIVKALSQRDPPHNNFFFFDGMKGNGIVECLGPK

Compound: COC(=O)C1=C(C(=O)NCc2ccccn2)C2C=CC1(C(Cc1ccccc1)Nc1ccccc1)O2 (stereo not drawn) [Compound 396]
c-Myc (c-Myc): ++ | SUMO (SUMO): +

Compound: COC(=O)C1=C(C(=O)NC2CN(C(=O)OC(C)(C)C)C2)C2C=CC1(C(Cc1ccccc1)Nc1ccccc1)O2 (stereo not drawn) [Compound 404]
c-Myc (c-Myc): + | SUMO (SUMO): ++

Compound: COC(=O)C1=C(C(=O)NCC2CCCO2)C2C=CC1(C(Cc1ccccc1)Nc1ccccc1)O2 (stereo not drawn) [Compound 405]
c-Myc (c-Myc): + | SUMO (SUMO): ++

Compound: COC(=O)C1=C(C(=O)NCCN2CCCC2)C2C=CC1(C(Cc1ccccc1)Nc1ccccc1)O2 (stereo not drawn) [Compound 406]
c-Myc (c-Myc): ++ | SUMO (SUMO): +++

Compound: C=CCC(Nc1ccccc1)C12C=CC(O1)C(C(=O)NCCN(C)C)=C2C(=O)OC (stereo not drawn) [Compound 415]
c-Myc (c-Myc): + | SUMO (SUMO): ++

Compound: COC(=O)C1=C(C(=O)NCC2CCCN2C)C2C=CC1(C(Cc1ccccc1)Nc1ccccc1)O2 (stereo not drawn) [Compound 418]
c-Myc (c-Myc): ++ | SUMO (SUMO): ++

Compound: COC(=O)C1=C(C(=O)NCCN(C)C(=O)OC(C)(C)C)C2C=CC1(C(Cc1ccccc1)Nc1ccccc1)O2 (stereo not drawn) [Compound 419]
c-Myc (c-Myc): + | SUMO (SUMO): ++

Compound: COC(=O)C1=C(C(=O)OC)C2(C(Cc3ccc(C(F)(F)F)cc3)Nc3ccccc3)C=CC1O2 (stereo not drawn) [Compound 422]
c-Myc (c-Myc): + | SUMO (SUMO): ++

Compound: COC(=O)C1=C(C(=O)NCCN(C)C)C2C=CC1(C(Cc1ccc(C(F)(F)F)cc1)Nc1ccccc1)O2 (stereo not drawn) [Compound 423]
c-Myc (c-Myc): ++ | SUMO (SUMO): ++

Compound: COC(=O)C1=C(C(=O)OC)C2(C(Cc3ccc(Cl)cc3)Nc3cc(F)cc(F)c3)C=CC1O2 (stereo not drawn) [Compound 425]
c-Myc (c-Myc): + | SUMO (SUMO): ++

Now from value to compound, other results behind:

SUMO (SUMO): ++
Compound: COC(=O)C1=C(C(=O)NCCN(C)C)C2C=CC1(C(Cc1ccccc1)Nc1cc(F)cc(F)c1)O2 (stereo not drawn) [Compound 399]
c-Myc (c-Myc): +

SUMO (SUMO): ++
Compound: CCN(CC)CCNC(=O)C1=C(C(=O)OC)C2(C(Cc3ccccc3)Nc3cc(F)cc(F)c3)C=CC1O2 (stereo not drawn) [Compound 400]
c-Myc (c-Myc): ++

SUMO (SUMO): ++
Compound: COC(=O)C1=C(C(=O)NCCN(C)C)C2(C(Cc3ccccc3)Nc3cc(F)cc(F)c3)C=CC1O2 (stereo not drawn) [Compound 401]
c-Myc (c-Myc): ++

SUMO (SUMO): ++
Compound: CCN(CC)CCNC(=O)C1=C(C(=O)OC)C2C=CC1(C(Cc1ccccc1)Nc1cc(F)cc(F)c1)O2 (stereo not drawn) [Compound 402]
c-Myc (c-Myc): +

SUMO (SUMO): ++
Compound: COCCNC(=O)C1=C(C(=O)OC)C2(C(Cc3ccccc3)Nc3ccccc3)C=CC1O2 (stereo not drawn) [Compound 403]
c-Myc (c-Myc): +

SUMO (SUMO): ++
Compound: COC(=O)C1=C(C(=O)NCCN(C)C)C2C=CC1(C(Cc1ccccc1)Nc1ccc(F)cc1F)O2 (stereo not drawn) [Compound 409]
c-Myc (c-Myc): ++

SUMO (SUMO): ++
Compound: CCN(CC)CCNC(=O)C1=C(C(=O)OC)C2(C(Cc3ccccc3)Nc3ccc(F)cc3F)C=CC1O2 (stereo not drawn) [Compound 410]
c-Myc (c-Myc): +

SUMO (SUMO): ++
Compound: CCOC(=O)C1=C(C(=O)NCCN(C)C)C2C=CC1(C(Cc1ccccc1)Nc1ccc(F)cc1F)O2 (stereo not drawn) [Compound 411]
c-Myc (c-Myc): +

SUMO (SUMO): ++
Compound: CCN(CC)CCNC(=O)C1=C(C(=O)OC)C2(C(Cc3ccccc3)Nc3ccc(F)cc3F)C=CC1O2 (stereo not drawn) [Compound 412]
c-Myc (c-Myc): +

SUMO (SUMO): ++
Compound: C=CCC(Nc1ccccc1)C12C=CC(O1)C(C(=O)NCCN(CC)CC)=C2C(=O)OC (stereo not drawn) [Compound 416]
c-Myc (c-Myc): +

SUMO (SUMO): ++
Compound: COC(=O)C1=C(C(=O)OC)C2(C(Cc3ccccc3)Nc3cccc(F)c3)C=CC1O2 (stereo not drawn) [Compound 417]
c-Myc (c-Myc): +

SUMO (SUMO): ++
Compound: COC(=O)C1=C(C(=O)NCCN(C)C)C2C=CC1(C(Cc1ccccc1)Nc1cccc(F)c1)O2 (stereo not drawn) [Compound 420]
c-Myc (c-Myc): ++

SUMO (SUMO): ++
Compound: CCN(CC)CCNC(=O)C1=C(C(=O)OC)C2(C(Cc3ccccc3)Nc3cccc(F)c3)C=CC1O2 (stereo not drawn) [Compound 421]
c-Myc (c-Myc): ++

SUMO (SUMO): ++
Compound: CCN(CC)CCNC(=O)C1=C(C(=O)OC)C2(C(Cc3ccc(C(F)(F)F)cc3)Nc3ccccc3)C=CC1O2 (stereo not drawn) [Compound 424]
c-Myc (c-Myc): ++
